Laboratory results reported in patent publication US7342004B2, “Thioether sulphamate steroids as steroid inhibitors and anti-cancer compounds” (Sterix Ltd., priority 2000, dated 2008).

Key:
DHA-STS = biological target: T1, DHA-STS (Rattus norvegicus, UniProt P15589); conditions: administered either orally or subcutaneously; cited from earlier work
T1 construct: from tissue; host or cells: rat liver (after oral or subcutaneous dosing)
T1 sequence (P15589 20-577): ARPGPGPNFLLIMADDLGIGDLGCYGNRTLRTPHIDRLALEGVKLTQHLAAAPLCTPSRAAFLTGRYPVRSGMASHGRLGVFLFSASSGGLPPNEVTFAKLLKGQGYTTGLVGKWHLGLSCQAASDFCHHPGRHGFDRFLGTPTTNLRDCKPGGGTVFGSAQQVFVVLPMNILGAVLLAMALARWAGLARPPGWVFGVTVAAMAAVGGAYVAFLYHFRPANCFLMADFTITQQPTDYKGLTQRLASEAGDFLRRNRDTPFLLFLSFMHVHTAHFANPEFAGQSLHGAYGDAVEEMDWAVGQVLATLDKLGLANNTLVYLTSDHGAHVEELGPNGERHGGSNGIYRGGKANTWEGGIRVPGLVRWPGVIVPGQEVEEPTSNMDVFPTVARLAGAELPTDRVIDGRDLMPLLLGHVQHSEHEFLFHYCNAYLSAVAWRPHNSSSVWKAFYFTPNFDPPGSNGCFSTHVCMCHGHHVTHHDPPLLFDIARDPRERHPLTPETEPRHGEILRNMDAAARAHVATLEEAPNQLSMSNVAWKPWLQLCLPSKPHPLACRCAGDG

uterus = conditions: cited from earlier work
CuZnSOD = CuZnSOD (UniProt P00442); experiment: Superoxide dismutase (SOD) spectrophotometric XTT assay, Protocol 1; type: biochemical; conditions: xanthine oxidase/XTT, 24° C., 30 minutes, read-out: IC 50/μM (+/− SEM) SOD Inhibition
Procedure: In this reaction, 3′-{1-[(phenylamino)-carbonyl]-3,4-tetrazolium}-bis(4-methoxy-6-nitro)benzenesulfonic acid hydrate (XTT) is converted to a colourimetric product by the action of superoxide ions (produced by xanthine oxidase (XO) and xanthine). Production of superoxide ions is inhibited by SOD resulting in decreased product. The ability of test compounds to inhibit SOD is measured by their ability to restore production of the coloured product. Reactions were performed in a total volume of 0.1 ml of buffer A (42 mM Na2CO3 (pH 9.4), 0.1 mM xanthine (Sigma), 0.1 mM EDTA, 0.026 mM XTT (Sigma)).
The reaction was incubated at 24° C. for 30 minutes and products determined by measuring absorobance at 470 nm. All determinations were made in duplicate/triplicate.
SOD activity was measured in accordance with Protocol 1.
Initial analyses were performed using test compounds at 100 μM.

rat liver E1-STS = biological target: T2, rat liver E1-STS (Rattus norvegicus, UniProt P15589); conditions: administered either orally or subcutaneously; cited from earlier work
T2 construct: from tissue; host or cells: rat liver (after oral or subcutaneous dosing)
T2 sequence (P15589 20-577): T1 sequence (P15589 20-577)

[1] = test system: MCF7, CAL51, CAMA1 and ZR-75-1 breast cancer derived cell lines; experiment: Cell cycle and apoptosis analysis in breast cancer cell lines; type: cell-based, human
Procedure: MCF7, CAL51, CAMA1 and ZR-75-1 breast cancer derived cell lines were obtained from ATCC (MCF7, CAMA1, ZR-75-1) or from the Dutrillaux laboratory (CAL51) (22) and maintained in Dulbecco's modified Eagle's medium (DMEM) supplemented with 10% (v/v) fetal calf serum and antibiotics.
DNA content was determined by flow cytometric analysis of propidium iodide stained cells and TdT-mediated dUTP-nick end labelling (TUNEL), respectively, as described (20). The proportion of cells in G2/M phase of the cell cycle was calculated as a proportion of cells with […] DNA content. The proportion of cells with <G1 DNA content was calculated as a percentage of total cells.
To determine the proportion of cells in mitosis, drug treated cells were collected by trypsinisation and cytospins prepared. Cells were fixed in ice cold methanol for 5 minutes, air dried and DNA was stained using propidium iodide (PI) (0.1 mg/ml in phosphate buffered saline (PBS) containing 10% (v/v) newborn calf serum and 0.05% (w/v) sodium azide). Cells were analysed by confocal microscopy using a Zeiss Axiovert 100 M microscope equipped with the LSM 510 confocal system (Zeiss, Jena, Germany).
We examined whether the differential sensitivity of breast cancer cell lines to the growth inhibitory effects of the compounds of the present invention.

STS = experiment: Plate assay, % inhibition; type: biochemical
Procedure: (§1) The STS inhibition provided by the compounds was determined in accordance with the placental microsomes assay of Protocol 4 and a plate assay.

steroid sulphatase (STS) = biological target: T3, steroid sulphatase (STS) (Homo sapiens, UniProt P08842); experiment: Inhibition of steroid sulphatase activity in placental microsomes, Protocol 4; type: biochemical
T3 sequence (P08842 22-583): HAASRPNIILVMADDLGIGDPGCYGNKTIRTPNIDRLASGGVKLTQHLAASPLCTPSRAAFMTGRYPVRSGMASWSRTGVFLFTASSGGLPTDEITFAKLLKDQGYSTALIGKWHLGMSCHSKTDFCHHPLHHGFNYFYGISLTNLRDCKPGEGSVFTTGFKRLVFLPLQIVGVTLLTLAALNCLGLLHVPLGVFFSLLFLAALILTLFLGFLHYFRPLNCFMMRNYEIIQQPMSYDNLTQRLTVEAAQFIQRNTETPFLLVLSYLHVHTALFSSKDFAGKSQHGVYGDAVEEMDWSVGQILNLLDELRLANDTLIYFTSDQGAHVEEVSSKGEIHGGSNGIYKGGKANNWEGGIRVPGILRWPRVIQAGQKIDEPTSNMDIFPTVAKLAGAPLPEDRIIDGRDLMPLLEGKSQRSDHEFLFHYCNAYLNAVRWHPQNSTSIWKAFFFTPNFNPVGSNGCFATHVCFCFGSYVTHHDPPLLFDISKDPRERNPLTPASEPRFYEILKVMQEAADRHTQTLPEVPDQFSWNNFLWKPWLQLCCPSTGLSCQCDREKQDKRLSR
Procedure: Sulphatase-positive human placenta from normal term pregnancies are thoroughly minced with scissors and washed once with cold phosphate buffer (pH 7.4, 50 mM) then resuspended in cold phosphate buffer (5 ml/g tissue). Homogenisation is accomplished with an Ultra-Turrax homogeniser, using three 10 second bursts separated by 2 minute cooling periods in ice. Nuclei and cell debris are removed by centrifuging (4° C.) at 2000 g for 30 minutes and portions (2 ml) of the supernatant are stored at […] The protein concentration of the supernatants is determined by the method of Bradford (Anal. Biochem., 72, 248-254 (1976)).
Incubations (1 ml) are carried out using a protein concentration of […], substrate concentration of […] [6,7-3H]oestrone-3-sulphate (specific activity 60 Ci/mmol from New England Nuclear, Boston, Mass., U.S.A.) and an incubation time of 20 minutes at 37° C. If necessary eight concentrations of compounds are employed: 0 (i.e. control); 0.05 mM; 0.1 mM; 0.2 mM; 0.4 mM; 0.6 mM; 0.8 mM; 1.0 mM. After incubation each sample is cooled and the medium (1 ml) was pipetted into separate tubes containing [14C]oestrone (7×10^3 dpm) (specific activity 97 Ci/mmol from Amersham International Radiochemical Centre, Amersham, U.K.). The mixture is shaken thoroughly for 30 seconds with toluene (5 ml). Experiments have shown that >90% [14C]oestrone and <0.1% [3H]oestrone-3-sulphate is removed from the aqueous phase by this treatment. A portion (2 ml) of the organic phase was removed, evaporated and the 3H and 14C content of the residue determined by scintillation spectrometry. The mass of oestrone-3-sulphate hydrolysed is calculated from the 3H counts obtained (corrected for the volumes of the medium and organic phase used, and for recovery of [14C]oestrone added) and the specific activity of the substrate.
as §1

steroid sulphatase = biological target: T4, steroid sulphatase (Homo sapiens, UniProt P08842); conditions: cited from earlier work
T4 sequence (P08842 22-583): T3 sequence (P08842 22-583)

Compound | inhibition of rat liver DHA-STS activity (DHA-STS) | oral uterotrophic activity in rats relative to estradiol (uterus; oral, rats, higher than that of estradiol) | IC50 (CuZnSOD) | inhibition of rat liver E1-STS activity (rat liver E1-STS) | Effect on cell morphology (rounding, detachment) [1] | Plate Assay, % inhibition 0.1 μM (STS; 0.1 μM) | Plate Assay, % inhibition 1 μM (STS; 1 μM) | Plate Assay, % inhibition 10 μM (STS; 10 μM) | IC50 (steroid sulphatase (STS); placental microsomes) | inhibition at 1 µM (steroid sulphatase (STS); read-out: Placental Microsomes, % inhibition 1 μM) | oestrogenicity (uterus; rat, in vivo) | potency as a steroid sulphatase inhibitor compared with EMATE (steroid sulphatase)
CC12CCC3c4ccc(OS(N)(=O)=O)cc4CCC3C1CCC2=O (stereo not shown) [Compound 24, estrone-3-O-sulphamate, reference compound] | 99% | 100 times | > 100 µM | 99% |  |  |  |  |  |  |  | 
CSc1cc2c(cc1OS(N)(=O)=O)CCC1C2CC[C@]2(C)C(=O)CCC12 (stereo partly shown) [Compound 36] |  |  |  |  | induced cells to become rounded and detached from the plate/flask | 3% | 53% | 55% | 0.12 µM | 86.9% |  | 
COc1cc2c(cc1OS(N)(=O)=O)CC[C@@H]1[C@@H]2CC[C@]2(C)C(=O)CC[C@@H]12 [Compound 25, 2-methoxyestrone-3-O-sulphamate] |  |  | > 100 µM |  |  |  |  |  |  |  | devoid of oestrogenicity | equipotent with EMATE
